Source: the NIST ThermoML archive (doi:10.1021/je500079y)
± gives the expanded uncertainty stated by the source.

Details: 101.33 kPa, Liquid, Vibrating tube method

CCOS(=O)(=O)[O-].CCn1cc[n+](C)c1 [1-ethyl-3-methylimidazolium ethyl sulfate]
Details	mass density [kg/m3]
278.15 K	1250.01 ± 0.13
283.15 K	1246.61 ± 0.13
288.15 K	1243.14 ± 0.13
293.15 K	1239.68 ± 0.13
298.15 K	1236.24 ± 0.13
303.15 K	1232.82 ± 0.13
308.15 K	1229.42 ± 0.13
313.15 K	1226.03 ± 0.13
318.15 K	1222.66 ± 0.12
323.15 K	1219.3 ± 0.1
328.15 K	1215.96 ± 0.12
333.15 K	1212.63 ± 0.12
338.15 K	1209.31 ± 0.12
343.15 K	1206.01 ± 0.12
